Experimental data published in US9326517B2, “Synergistic combination of a chlorotoluron compound and IPBC for dry film protection” (Dow Global Technologies LLC, priority 2013, dated 2016).

How the values were obtained:
Chlorella sp. ATCC 7516 = assay: Algal efficacy testing of dry paint films (modified ASTM 5589, 6-well plates); assay type: cell-based; conditions: 3 weeks; for Total conc: total biocide concentration in paint used as minimum inhibitory concentration for SI, pass level ≧75% inhibition
Protocol: Slurries containing 33% antimicrobial active ingredient (chlorotoluron) were post added to a white, acrylic/silicone based outdoor paint free of biocides to give a total active ingredient concentration of 10000 and 1000 ppm respectively. ROCIMA™ 250 (40% IPBC) was post added to a white, acrylic/silicone based outdoor paint free of biocides to give a total active ingredient concentration of 10000 and 1000 ppm respectively. These paints were then diluted with an antimicrobial free acrylic/silicone based paint and mixed to prepare targeted concentrations of antimicrobial compounds for the testing. The total biocides concentrations tested were 125, 250, 500, 1000, 2000 and 5000 ppm. After biocides addition or dilution, the paints were mixed 90 seconds with the horse power shaker (AXEL 75M3372/Agitateur SO-10MI) until uniformity was achieved. Paints containing different antimicrobial compounds at the same levels were mixed together in order to obtain the desired ratio of antimicrobial compounds. After one day, the paints were applied to Schleicher & Schuell filter paper at 280 μm wet film thickness and dried for 3 days at room temperature avoiding direct exposure to sunlight. Square discs (1.6 cm×1.6 cm) were cut out from each panel and were used as the substrate for algal efficacy tests. This sample size allowed for an agar border when the sample disc was placed into the well of the test plate.
Algal efficacy was tested according to modified ASTM 5589 which is a standard accelerated test method for determining resistance of various coatings (including paints) to algal defacement. To accommodate for high-throughput screening, this method was scaled down from petri dishes to 6-well plates. Bold Modified Basal Freshwater Nutrient Solution was used as growth medium. A single coated filter paper coupon was placed with a pair of sterile forceps at the center of the agar plug (on top) with the painted surface facing upwards. Algal inoculum was prepared by mixing equal concentrations (1×10^6 cfu/ml) and equal volumes of exponentially growing algae cultures.
Each well that contains a tested coupon was inoculated with 1750 μl of algal suspensions (1×10^6 cfu/ml) making sure that the whole surface (paint film as well as the agar surrounding it) was evenly covered. The plates were incubated at room temp (21° C.-25° C.) with cyclic exposure to light and dark phases, for a period of three weeks. The total area inhibited was evaluated at the end of each week according to percent area covered in 5% increments.
At the end of the three week incubation period, the samples were scored for percent inhibition regarding color intensity compared to the blank sample.
The Synergy Index calculation was performed as follows.
The SI is calculated based on F. C. Kull et. […]

[1] = cited from earlier work

Compound | Total conc (Chlorella sp. ATCC 7516) [ppm] | inhibition at 1000 ppm (Chlorella sp. ATCC 7516; 504 h, total conc 1000 ppm in paint) [%] | solubility in water [1] | inhibition at 2000 ppm (Chlorella sp. ATCC 7516; 504 h, total conc 2000 ppm in paint) [%]
Cc1ccc(NC(=O)N(C)C)cc1Cl [Chlorotoluron, N′-(3-chloro-4-methylphenyl)-N,N-dimethylurea] | 1000 | 100 | relatively low | –
CCCCNC(=O)OCC#CI [IPBC, 3-Iodo-2-propynyl butylcarbamate] | 2000 | – | – | 70
